Results on 4 compounds are retold here after patent US10561656B2, “Organic compounds” (INTRA-CELLULAR THERAPIES, INC., priority 2011, dated 2020).

Experiment [1] addresses recombinant full length human PDE1A (r-hPDE1A) (Homo sapiens (Human), UniProt P54750). Briefly: IMAP phosphodiesterase assay, r-hPDE1A. It is filed as biochemical. The note with it: IMAP fluorescence polarization, FL-GMP substrate. The text has this:
(§1) Phosphodiesterase 1B (PDE1B) is a calcium/calmodulin dependent phosphodiesterase enzyme that converts cyclic guanosine monophosphate (cGMP) to 5′-guanosine monophosphate (5′-GMP). PDE1B can also convert a modified cGMP substrate, such as the fluorescent molecule cGMP-fluorescein, to the corresponding GMP-fluorescein. The generation of GMP-fluorescein from cGMP-fluorescein can be quantitated, using, for example, the IMAP (Molecular Devices, Sunnyvale, Calif.) immobilized-metal affinity particle reagent.
(§2) Briefly, the IMAP reagent binds with high affinity to the free 5′-phosphate that is found in GMP-fluorescein and not in cGMP-fluorescein. The resulting GMP-fluorescein—IMAP complex is large relative to cGMP-fluorescein. Small fluorophores that are bound up in a large, slowly tumbling, complex can be distinguished from unbound fluorophores, because the photons emitted as they fluoresce retain the same polarity as the photons used to excite the fluorescence.
(§3) In the phosphodiesterase assay, cGMP-fluorescein, which cannot be bound to IMAP, and therefore retains little fluorescence polarization, is converted to GMP-fluorescein, which, when bound to IMAP, yields a large increase in fluorescence polarization (Δmp) Inhibition of phosphodiesterase, therefore, is detected as a decrease in Δmp.
Materials: All chemicals are available from Sigma-Aldrich (St. Louis, Mo.) except for IMAP reagents (reaction buffer, binding buffer, FL-GMP and IMAP beads), which are available from Molecular Devices (Sunnyvale, Calif.).
Assay: The following phosphodiesterase enzymes may be used: 3′,5′-cyclic-nucleotide-specific bovine brain phosphodiesterase (Sigma, St. Louis, Mo.) (predominantly PDE1B) and recombinant full length human PDE1A and PDE1B (r-hPDE1A and r-hPDE1B respectively) which may be produced e.g., in HEK or SF9 cells by one skilled in the art. The PDE1 enzyme is reconstituted with 50% glycerol to 2.5 U/ml. One unit of enzyme will hydrolyze 1.0 μmole of 3′,5′-cAMP to 5′-AMP per min at pH 7.5 at 30° C. One part enzyme is added to 1999 parts reaction buffer (30 μM CaCl2, 10 U/ml of calmodulin (Sigma P2277), 10 mM Tris-HCl pH 7.2, 10 mM MgCl2, 0.1% BSA, 0.05% NaN3) to yield a final concentration of 1.25 mU/ml. […]
(§4) The FL-GMP conversion reaction is initiated by combining 4 parts enzyme and inhibitor mix with 1 part substrate solution (0.225 μM) in a 384-well microtiter plate. […] The plate is incubated at room temperature for 1 hour to allow IMAP binding to proceed to completion, and then placed in an Envision multimode microplate reader (PerkinElmer, Shelton, Conn.) to measure the fluorescence polarization (Δmp).
(§5) A decrease in GMP concentration, measured as decreased Δmp, is indicative of inhibition of PDE activity.

For experiment [2], the target named is recombinant full length human PDE1B (r-hPDE1B) (Homo sapiens (Human), UniProt Q01064). Briefly: IMAP phosphodiesterase assay, r-hPDE1B. It is filed as biochemical. The note with it: IMAP fluorescence polarization, FL-GMP substrate.
Text: as §1, §2, §3
Materials: All chemicals are available from Sigma-Aldrich (St. Louis, Mo.) except for IMAP reagents (reaction buffer, binding buffer, FL-GMP and IMAP beads), which are available from Molecular Devices (Sunnyvale, Calif.). […]
as §4, §5
A general note: Fluorescence polarisation rises when a labelled molecule tumbles more slowly, as on binding a larger partner.

Experiment [3] deals with C57BL/6 mice. Briefly: Haloperidol-induced catalepsy model (bar grip test). It is filed as in vivo. The note with it: mouse, PO, haloperidol 3 mg/kg PO, step down latency. An excerpt: To evaluate the potential beneficial effects to motor defects present in schizophrenics treated with typical and atypical antipsychotic agents and in Parkinson's disease patients, the compounds of the invention may be tested in a reversal of catalepsy model in which motor freezing, or catalepsy, is induced by potent dopamine D2 receptor antagonists such as haloperidol or risperidone. The method uses the “bar grip test”, in which the front paws of the mouse are placed so as to grip a 3 mm-diameter, suspended wooden bar. A “step down latency” is measured by recording the time until the mouse removes its paws from the wooden bar to the floor surface. […]
A total of seventeen (17) eight week-old, male, C57BL/6 mice (Jackson Laboratories) are used in a typical experiment testing the effect of the compound of Example 1 or 2. […] A catalepsy score is recorded for each mouse at 2, 3, 4 and 6 hours after administration of drugs. […] The latency until the mouse steps both paws down from the bar to the floor surface (i.e., step down latency) is recorded up to 120 sec. […] If none of the 10 attempts are beyond 10 sec, the longest duration recorded is used as the catalepsy score. Otherwise, the initial cataleptic duration (>10 sec) is recorded during the 120 sec testing time. Mean step down latency is calculated for each treatment group. […]

In experiment [4] the test system is rats. Briefly: Novel Object Recognition (NOR) assay. It is filed as in vivo. The note with it: rat, 0.3 mg/Kg PO, dosed 2 hours before T1, p<0.01. An excerpt:
To measure the cognition-enhancing effects of the compounds of the invention, the candidate compounds may be evaluated in a Novel Object Recognition (NOR) assay. This assay protocol is described in detail in Ennaceur et al., Behav. Brain Res. (1988) 31:47-59 and Prickaerts et al., Eur. J. Pharmacol. (1997) 337:125-136, the contents of each of which are incorporated by reference in their entirety. In this protocol, the rats are introduced to a chamber at time T1 and allowed to interrogate two identical “familiar objects” for six minutes. Twenty four hours later, they are re-introduced to this chamber, where one of the familiar objects has been replaced with a novel object. The “discrimination index”, a measure of the time spent in close proximity to the novel over the familiar object, may then be measured. Since rodents will forget the original experience at T1 within 4 hours, this test with a 24 h interval is a measure of strong cognitive enhancement.
This assay protocol can be modified in order to evaluate different phases of memory. There are three general phases of memory, namely, acquisition, consolidation and retrieval. In this modified protocol, the rats may be dosed with the candidate compound two hours before T1 and tested 24 h later, without additional dosing. This is a test of the acquisition process. […]

The IC50 is the midpoint of a concentration-inhibition curve.

In the case of `CC(C)Sc1c2c(nn1Cc1ccc(-c3cccc(F)n3)cc1)N1C(=N[C@@H]3CCC[C@@H]31)N(C)C2=O` [Example 3-B, (6aR,9aS)-5,6a,7,8,9,9a-hexahydro-5-methyl-3-(isopropylthio)-2-(4-(6-fluoropyridin-2-yl)benzyl)-cyclopent[4,5]imidazo[1,2-a]pyrazolo[4,3-e]pyrimidin-4(2H)-one], in experiment [1], the half-maximal inhibitory concentration (IC50) was 6 nM.

Take `CCSc1c2c(nn1Cc1ccc(-c3cccc(F)n3)cc1)N1CC(C)(C)N=C1N(C)C2=O` [Example 2, 3-(ethylthio)-2-(4-(6-fluoropyridin-2-yl)benzyl)-5,7,7-trimethyl-7,8-dihydro-2H-imidazo[1,2-a]pyrazolo[4,3-e]pyrimidin-4(5H)-one]: the half-inhibitory concentration (IC50) was found to be 1 nM in experiment [1] and 4000 nM in experiment [2]. Also, the “minimal dose active in catalepsy model” value in experiment [3] was less than 0.1 mg/kg.

In the case of `CCSc1c2c(nn1Cc1ccc(-c3ccc(F)cn3)cc1)N1CC(C)(C)N=C1N(C)C2=O` [Example 1, 3-(ethylthio)-2-(4-(5-fluoropyridin-2-yl)benzyl)-5,7,7-trimethyl-7,8-dihydro-2H-imidazo[1,2-a]pyrazolo[4,3-e]pyrimidin-4(5H)-one], the values for the IC50 in experiment [1] and in experiment [2] were 2.7 nM and 11000 nM, respectively. Further, the “activity versus vehicle in Novel Object Recognition” value in experiment [4] was “active versus vehicle”. Further, in experiment [3], the “minimal dose active in catalepsy model” value is less than 0.1 mg/kg.

With `CCSc1c2c(nn1Cc1ccc(-c3cccc(F)n3)cc1)N1C(=N[C@@H]3CCC[C@@H]31)N(C)C2=O` [Example 3-A, (6aR,9aS)-5,6a,7,8,9,9a-hexahydro-5-methyl-3-(ethylthio)-2-(4-(6-fluoropyridin-2-yl)benzyl)-cyclopent[4,5]imidazo[1,2-a]pyrazolo[4,3-e]pyrimidin-4(2H)-one], the IC50 in experiment [1] was found to be 1.5 nM; in experiment [2] it was 27000 nM.
